Assay results taken from ChEMBL document CHEMBL3399949, “Fingerprint-based consensus virtual screening towards structurally new 5-HT(6)R ligands” (Bioorg Med Chem Lett, 2015).

Assay: Dissociation constant, pKa of the compound
Format: physicochemical

Row | SMILES | pKa
1 | O=S(=O)(Nc1cc(Sc2cccc3cccnc23)c(O)c2ccccc12)c1ccc(F)cc1 | 3.48
2 | Cc1ccc(S(=O)(=O)c2cnc3ccc(F)cc3c2SCc2ccc(Cl)cc2)cc1 | -0.25
3 | Brc1ccc2c(c1)c1c3n2CCN(Cc2ccccc2)C3CCC1 (centres undefined) | 6.95
4 | O=S(=O)(Nc1ccn(Cc2cccc3ccccc23)n1)c1ccc(Br)s1 | 1.93
5 | O=S(=O)(Nc1cc(Sc2cccc3cccnc23)c(O)c2ccccc12)c1ccccc1 | 3.48
6 | NC(=O)C1CCN(c2c(S(=O)(=O)c3ccccc3)cnc3ccc(Cl)cc23)CC1 | 3.05
7 | Cc1ccc(S(=O)(=O)N/N=C2\CCCc3c2[nH]c2ccc(Cl)cc32)cc1 | -0.33
8 | Cc1ccc(Nc2c(S(=O)(=O)c3ccccc3)cnc3ccc(Cl)cc23)cc1 | 2.34
9 | COCCn1c(C)c(C)c(S(=O)(=O)c2ccc(Cl)cc2)c1N | -0.59
10 | O=S(=O)(Nc1ccccc1-c1nccc2ccccc12)c1ccc(Cl)cc1 | 5.3
11 | Nc1c(S(=O)(=O)c2ccccc2)sc2nc(-c3ccccc3)cc(-c3ccccc3)c12 | -0.69
12 | O=S(=O)(Nc1cc2c(c3ccccc13)OC1(N3CCOCC3)CCCCC21)c1ccccc1 (centres undefined) | 5.56
13 | COc1cccc(-n2cc(C(=O)N(C)c3cccc(Cl)c3)c3ccccc3c2=O)c1 | -1.37
14 | Cc1ccc(Cl)cc1N(C)C(=O)c1cn(-c2ccc(F)cc2F)c(=O)c2ccccc12 | -1.07
